Assay results taken from patent EP0626943B1, “BISTRIAZENES AS CHEMOTHERAPEUTIC AGENTS” (THE GOVERNMENT OF THE UNITED STATES OF AMERICA as …, priority 1991, dated 1993).
Read-outs that look alike come from different tables or passages of the source. One block for each molecule: values may come before it.

What was measured:
human tumor cell lines = test: Clonogenic assay against a panel of human tumor cells (Figures 1-4); format: cell-based; conditions: for cytotoxicity, overall statement: clonogenic assay, no concentration given
Procedure: Clonogenic Assay. The response of a variety of human tumor cell lines to bistriazenes was determined via the clonogenic assay described in Fiebig et al. (1987) European Journal of Cancer and Clinical Oncology 23: 937-948.
(§1) Briefly, the assay system consists of a modified, two-layer soft agar culture system. The bottom layer consists of 1 ml of modified Dulbecco medium supplemented with L-glutamine, containing 10% fetal calf serum and 0.5% agar, in a 35 mm petri-dish. The upper layer contains 2-5 x 10^5 viable human tumor cells suspended in a 1 ml volume, consisting of 0.3% agar, 30% fetal calf serum, and the medium. The drugs to be tested, contained in 1 ml of medium containing 30% fetal calf serum, are included in the upper layer. Control plates are identical, except for the omission of the drugs. The plates are incubated at 37°C in a humidified atmosphere containing 7% carbon dioxide for varying periods (7-21 days). The time in culture is determined by the rate of colony formation in the control plates. At the end of the culture period, the number of colonies in the drug treated cultures is compared to the number of colonies in the control plates, after visualization of the live colonies by staining with tetrazolium chloride.
The tumors included those derived from colon cancer, three types of lung cancer, mammary cancer, ovarian cancer, two types of kidney cancer, a mesothelioma, a gastric cancer, and a sarcoma. These tumors represent some of the most important cancers for which current treatments are inadequate. For comparison, the assays of the various bistriazenes were compared to the response induced in the same tumors by DTIC, a drug employed in clinical practice.

LXFL 529 = test: Clonogenic assay (two-layer soft agar culture); format: cell-based; conditions: Homo sapiens
Procedure: as §1

PRCL DU145X = test: Clonogenic assay (two-layer soft agar culture); format: cell-based; conditions: Homo sapiens, read-out: Test/Control (%) at Drug Concentration (µg/ml)
Procedure: as §1

RXF 1220 = test: Clonogenic assay (two-layer soft agar culture); format: cell-based; conditions: Homo sapiens, read-out: Test/Control (%) at Drug Concentration (µg/ml)
Procedure: as §1

[1] = Solubility observed on isolation; format: physicochemical
Procedure: A solution of 3.95 g (25 mmoles) of 2-bromopyridine in 20 ml of dry pentane was added dropwise to 10 ml. of 2.5M butylithium in hexane at -78°C. To the resulting yellow slurry was added dropwise with stirring 1.75 g (12.5 mmoles) of 1,4-diazidobutane in 10 ml. of pentane. Stirring was continued for 2 hr. at -78° and then the reaction mixture was allowed to warm to room temperature. The reaction mixture was treated with 60 ml. of ammonium buffer which caused a precipitate to appear after the reaction was cooled to -78°C. The solid was filtered off. […] The yield was 2.3 g., m.p. 133-136. Spectroscopic data were consistent with the structure.
A solution of butyllithium in hexane (5 ml., 2.5M) was dissolved in 10 ml. of tetrahydrofuran and cooled to -78°C. To this was added dropwise with stirring a solution of 1.98 g (12.5 mmoles) of 2-bromopyridine in 10 ml. of tetrahydrofuran. The dark yellow solution of the pyridine anion was mixed with a solution of 0.70 g (6.2 mmoles) of 1,2-diazidoethane in 10 ml. of tetrahydrofuran at -78°C. After 1 hr. of stirring the dark green solution was treated with 10 ml. of ammonium buffer. The color changed to yellow. The organic solvent was removed in vacuo, and the precipitate was isolated by filtration and washed with copious quantities of diethylether. The powdery material was finally dried under high vacuum. The yield was 770 mg. […] The spectra, however, were fully consistent with the structure.

[2] = test system: 32P-endlabeled oligonucleotide; test: Oligonucleotide crosslinking assay; format: biochemical; conditions: 37°C, 42 hours, pH 7.4
Procedure: A solution of 6.2 ng of ^32P-endlabeled oligonucleotide in 0.1 M cacodylic acid buffer (0.1 M NaCl, pH 7.4) was allowed to react with the desired compound dissolved in 1/10 volume DMSO. Final concentrations of the compounds in the oligonucleotide solution were 0.1 mM NMUST, 1.0 mM CCNU, or 10 mM bistriazene. Reactions were incubated at 37°C for 42 hours, and analyzed by denaturing polyacrylamide gel electrophoresis (20% gel) followed by autoradiography. the gels were intentionally overexposed to better visualize bands corresponding to interstrand crosslinks. Large amounts of unreacted oligonucleotides were also visualized under these conditions.

[3] = 10 ug/ml, panel of human tumor cell lines
[4] = 100 ug/ml, panel of human tumor cell lines
[5] = 1.0 µg/ml, LXFL 529 large cell lung cancer line, read-out: Test/Control (%) at Drug Concentration (µg/ml)
[6] = 10.0 µg/ml, LXFL 529 large cell lung cancer line, read-out: Test/Control (%) at Drug Concentration (µg/ml)
[7] = 100.0 µg/ml, LXFL 529 large cell lung cancer line, read-out: Test/Control (%) at Drug Concentration (µg/ml)
[8] = 1.0 µg/ml, PRCL DU145X prostate carcinoma
[9] = 10.0 µg/ml, PRCL DU145X prostate carcinoma
[10] = 100.0 µg/ml, PRCL DU145X prostate carcinoma
[11] = 1.0 µg/ml, RXF 1220 renal carcinoma
[12] = 10.0 µg/ml, RXF 1220 renal carcinoma
[13] = 100.0 µg/ml, RXF 1220 renal carcinoma
[14] = LXFL 529, read-out: Test/Control (%) at Drug Concentration (µg/ml)
[15] = 1 ug/ml, panel of human tumor cell lines

SMILES: CNN=NCCN=NNC [bis(methyltriazeno)ethane, 1,2-Bis(methyltriazeno)ethane]
cytotoxic activity (human tumor cell lines; [3]): only marginal, but significant, activity was seen in the large cell lung cancer and in the mammary cancer | cytotoxic activity (human tumor cell lines; 100 ug/ml, mesothelioma, gastric carcinoma, renal cancer RXF 423/17): Relatively little or no activity | cytotoxic activity (human tumor cell lines; [4]): highly cytotoxic at 100 ug/ml to most of the tumor cell lines

SMILES: c1cncc(N=NNCCNN=Nc2cccnc2)c1 [Example 1a, bis(3-pyridyltriazeno)ethane]
cytotoxicity, overall statement (human tumor cell lines): potently cytotoxic | activity at 1 µg/mL (LXFL 529; [5]): 51% | activity at 10 µg/mL (LXFL 529; [6]): 0% | activity at 100 µg/mL (LXFL 529; [7]): 0% | activity at 1 µg/mL (PRCL DU145X; [8]): 84% | activity at 10 µg/mL (PRCL DU145X; [9]): 44% | activity at 100 µg/mL (PRCL DU145X; [10]): 0% | activity at 1 µg/mL (RXF 1220; [11]): 99% | activity at 10 µg/mL (RXF 1220; [12]): 74% | activity at 100 µg/mL (RXF 1220; [13]): 4%

SMILES: CN(C)N=Nc1[nH]cnc1C(N)=O [DTIC, 5-(3,3-dimethyltriazeno)imidazole-4-carboxamide, reference compound]
cytotoxic activity (human tumor cell lines; 3 ug/ml, panel of human tumor cell lines): marginal activity against the gastric cancer | cytotoxic activity (human tumor cell lines; 30 ug/ml, panel of human tumor cell lines): activity against the gastric carcinoma GXF251/16 and the ovarian cancer OVXF899/9 | cytotoxic activity (human tumor cell lines; 300 ug/ml, panel of human tumor cell lines): potently cytotoxic on all cell lines | activity at 1 µg/mL (LXFL 529; [5]): 63% | activity at 10 µg/mL (LXFL 529; [6]): 35% | activity at 100 µg/mL (LXFL 529; [7]): 8% | activity at 1 µg/mL (PRCL DU145X; [8]): 70% | activity at 10 µg/mL (PRCL DU145X; [9]): 44% | activity at 100 µg/mL (PRCL DU145X; [10]): 43% | activity at 1 µg/mL (RXF 1220; [11]): 54% | activity at 10 µg/mL (RXF 1220; [12]): 44% | activity at 100 µg/mL (RXF 1220; [13]): 24%

solubility ([1]; dimethylsulfoxide): sparingly soluble
SMILES: c1ccc(NN=NCCCCN=NNc2ccccn2)nc1 [compound 14, 1,4-Bis(2-pyridyltriazeno)butane]
solubility ([1]; common solvents): poorly soluble in common solvents such as halomethanes, acetone, methanol and water

SMILES: c1ccc(NN=NCCN=NNc2ccccn2)nc1 [compound 15, 1,2-Bis(2-pyridyltriazeno)ethane]
solubility ([1]; common solvents): not soluble in most solvents, except dimethylsulfoxide

SMILES: c1cncc(N=NNCCCCNN=Nc2cccnc2)c1 [Example 1b]
cytotoxicity, overall statement (human tumor cell lines): potently cytotoxic | activity at 1 µg/mL (LXFL 529; [5]): 71% | activity at 10 µg/mL (LXFL 529; [6]): 1% | activity at 100 µg/mL (LXFL 529; [7]): 1% | activity at 1 µg/mL (PRCL DU145X; [8]): 94% | activity at 10 µg/mL (PRCL DU145X; [9]): 62% | activity at 100 µg/mL (PRCL DU145X; [10]): 4% | activity at 1 µg/mL (RXF 1220; [11]): 82% | activity at 10 µg/mL (RXF 1220; [12]): 70% | activity at 100 µg/mL (RXF 1220; [13]): 8%

SMILES: O=P1(N(CCCl)CCCl)NC(OO)CCO1 (stereo not shown) [CYCM, 4-hydroperoxycyclophosphamide, reference compound]
activity at 1 µg/mL (LXFL 529; [14]): 115% | activity at 10 µg/mL (LXFL 529; [14]): 94% | activity at 100 µg/mL (LXFL 529; [14]): 19% | activity at 1 µg/mL (PRCL DU145X): 108% | activity at 10 µg/mL (PRCL DU145X): 90% | activity at 100 µg/mL (PRCL DU145X): 47% | activity at 1 µg/mL (RXF 1220): 67% | activity at 10 µg/mL (RXF 1220): 51% | activity at 100 µg/mL (RXF 1220): 9%

SMILES: CNN=NC/C=C/CN=NNC [1,4-bis(methyltriazeno)-trans-2-butene, 1,4-Bis(methyltriazeno)-trans-2-butene]
interstrand crosslinking of oligonucleotides ([2]; 10 mM bistriazene): produce stable crosslinked species in oligonucleotides | cytotoxic activity (human tumor cell lines; [15]): still significant activity against the lung cancer | cytotoxic activity (human tumor cell lines; [3]): activity persisted at 10 ug/ml, especially for the large cell lung carcinoma LXFL529 and the renal cancer RXF423/17 | cytotoxic activity (human tumor cell lines; [4]): potent cytotoxic activity against all the tumors tested | cytotoxicity, overall statement (human tumor cell lines): highly potent against several tumors, especially the large cell lung carcinoma

SMILES: O=NN(CCCl)C(=O)NC1CCCCC1 [CCNU, 1-(2-chloroethyl)-3-cyclohexyl-1-nitrosourea, reference compound]
interstrand crosslinking of oligonucleotides ([2]; 1.0 mM CCNU): not as effective at forming crosslinks as the p-xylyl bistriazene derivative

SMILES: CNN=NCc1ccc(CN=NNC)cc1 [bis(methyltriazeno)-p-xylene, 1,4-Bis(methyltriazenomethyl)benzene]
interstrand crosslinking of oligonucleotides ([2]; 10 mM bistriazene, listed as p-xylyl): produce stable crosslinked species in oligonucleotides | interstrand crosslinking of oligonucleotides ([2]; 10 mM bistriazene, listed as p-xylyl bistriazene): stably covalently crosslinked | cytotoxic activity (human tumor cell lines; [15]): Some activity was also evident at a dose of 1 ug/ml in about half the cell lines | cytotoxic activity (human tumor cell lines; [3]): toxicity against approximately half of the cell lines examined | cytotoxic activity (human tumor cell lines; [4]): highly toxic to all tumor cell lines
